According to patent US7786141B2 (Vertex Pharmaceuticals Incorporated, priority 2004, dated 2010):

What was measured:
M1 muscarinic receptor = biological target: T1, M1 muscarinic receptor (Homo sapiens, UniProt P11229); test: Functional mobilization of intracellular calcium (FLIPR) in M1-CHO cells; assay type: cell-based; settings: M1 receptor, calcium mobilization; for Emax: read-out: M1 Efficacy
T1 construct: expressed in transfected cells; host or cells: CHO (M1-CHO)
T1 sequence (P11229 1-460): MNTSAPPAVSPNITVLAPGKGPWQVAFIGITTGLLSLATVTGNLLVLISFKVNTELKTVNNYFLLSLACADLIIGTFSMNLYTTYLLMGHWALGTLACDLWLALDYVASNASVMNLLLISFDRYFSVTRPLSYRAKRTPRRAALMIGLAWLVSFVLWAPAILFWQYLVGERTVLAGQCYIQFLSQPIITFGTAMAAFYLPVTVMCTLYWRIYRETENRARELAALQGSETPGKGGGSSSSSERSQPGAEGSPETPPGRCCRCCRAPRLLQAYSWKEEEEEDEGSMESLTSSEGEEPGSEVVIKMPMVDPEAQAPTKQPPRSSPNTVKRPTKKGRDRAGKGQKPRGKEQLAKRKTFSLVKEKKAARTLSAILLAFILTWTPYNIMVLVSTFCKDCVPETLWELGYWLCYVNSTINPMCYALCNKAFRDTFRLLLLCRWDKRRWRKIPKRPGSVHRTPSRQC
Procedure, shortened: (§1)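 Intracellular calcium rise is measured by FLIPR fluorescence over 60 sec in CHO cells carrying human M1 or M4 receptors. Compounds are tested alone as agonists, or pre-incubated 15 min (or co-applied) ahead of carbachol at its EC80 to detect inhibition.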

M4 muscarinic receptor = biological target: T2, M4 muscarinic receptor (Homo sapiens, UniProt P08173); test: Functional mobilization of intracellular calcium (FLIPR) in M4-CHO cells; assay type: cell-based; settings: M4 receptor, calcium mobilization; for Emax: read-out: M4 Efficacy
T2 construct: expressed in transfected cells; host or cells: CHO (M4-CHO)
T2 sequence (P08173 1-479): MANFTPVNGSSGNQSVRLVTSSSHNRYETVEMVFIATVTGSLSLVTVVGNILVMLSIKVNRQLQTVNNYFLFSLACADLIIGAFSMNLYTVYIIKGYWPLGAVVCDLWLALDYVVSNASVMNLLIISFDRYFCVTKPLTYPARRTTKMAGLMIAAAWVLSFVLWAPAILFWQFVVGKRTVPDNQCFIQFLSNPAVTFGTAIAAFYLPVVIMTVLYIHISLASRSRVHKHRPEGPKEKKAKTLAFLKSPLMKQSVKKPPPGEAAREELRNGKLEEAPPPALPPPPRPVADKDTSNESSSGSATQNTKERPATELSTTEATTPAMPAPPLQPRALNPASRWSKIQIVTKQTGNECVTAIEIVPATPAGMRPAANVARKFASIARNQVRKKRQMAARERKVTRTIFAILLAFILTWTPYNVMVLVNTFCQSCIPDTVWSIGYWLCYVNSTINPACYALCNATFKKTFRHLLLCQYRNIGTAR
Procedure, shortened: as §1

SMILES | M1 Activity (M1 muscarinic receptor) | Emax (M1 muscarinic receptor) [%] | M4 Activity (M4 muscarinic receptor) | Emax (M4 muscarinic receptor) [%]
O=C(O[C@@H]1CCOC1)N1CC2(CCN(C3CC4CCC(C3)N4C(=O)O[C@@H]3CCOC3)CC2)c2cc(F)ccc21 (stereo partly shown) [compound 112] | xxx (activity was measured to be less than 0.1 μM) | 65 to 85 | xx (activity was measured to be between 0.1 μM and 1.0 μM) | < 65
CCOC(=O)N1CCC(N2CCC3(CC2)CN(C(C)=O)c2ccc(F)cc23)C1 (stereo not shown) [compound 113] | xxx (activity was measured to be less than 0.1 μM) | 65 to 85 | x (activity was measured to be greater than 1.0 μM) | < 65
CCCOC(=O)N1CC2(CCN(C3CCN(C(=O)OCC)CC3)CC2)c2cc(F)ccc21 [compound 114] | xx (activity was measured to be between 0.1 μM and 1.0 μM) | 65 to 85 | x (activity was measured to be greater than 1.0 μM) | < 65
CCCOC(=O)N1C2CCC1CC(N1CCC3(CC1)CN(C(=O)O[C@@H]1CCOC1)c1ccc(F)cc13)C2 (stereo partly shown) [compound 115] | xxx (activity was measured to be less than 0.1 μM) | 65 to 85 | xx (activity was measured to be between 0.1 μM and 1.0 μM) | < 65
Cc1ccc2c(c1)C1(CCN(C3CC4CCC3C4)CC1)CN2C(=O)OC(C)(C)C (stereo not shown) [compound 116] | xxx (activity was measured to be less than 0.1 μM) | 65 to 85 | xx (activity was measured to be between 0.1 μM and 1.0 μM) | < 65
COCCOC(=O)N1CC2(CCN(C3CC4CCC(C3)N4C(=O)OCCOC)CC2)c2cc(F)ccc21 (stereo not shown) [compound 117] | xxx (activity was measured to be less than 0.1 μM) | 65 to 85 | xx (activity was measured to be between 0.1 μM and 1.0 μM) | < 65
CC(=O)N1CC2(CCN(CC3CC4CCC3C4)CC2)c2cc(C)ccc21 (stereo not shown) [compound 118] | xxx (activity was measured to be less than 0.1 μM) | 65 to 85 | x (activity was measured to be greater than 1.0 μM) | < 65
COCCOC(=O)N1C2CCC1CC(N1CCC3(CC1)CN(C(=O)N(C)C)c1ccc(F)cc13)C2 (stereo not shown) [compound 119] | xxx (activity was measured to be less than 0.1 μM) | < 65 | x (activity was measured to be greater than 1.0 μM) | < 65
CN(C)C(=O)N1CC2(CCN(C3CCN(C(=O)O[C@H]4CCOC4)CC3)CC2)c2cc(F)ccc21 [compound 120] | xx (activity was measured to be between 0.1 μM and 1.0 μM) | < 65 | x (activity was measured to be greater than 1.0 μM) | < 65
CS(=O)(=O)N1CC2(CCN(C3CC4CCC(C3)N4C(=O)OC3CCC3)CC2)c2cc(F)ccc21 (stereo not shown) [compound 122] | xxx (activity was measured to be less than 0.1 μM) | 65 to 85 | xx (activity was measured to be between 0.1 μM and 1.0 μM) | < 65
O=C(OC1CCC1)N1C2CCC1CC(N1CCC3(CC1)COc1ccc(F)cc13)C2 (stereo not shown) [compound 123] | xx (activity was measured to be between 0.1 μM and 1.0 μM) | < 65 | x (activity was measured to be greater than 1.0 μM) | < 65
O=C(OCC(F)(F)F)N1C2CCC1CC(N1CCC3(CC1)COc1ccc(F)cc13)C2 (stereo not shown) [compound 124] | xxx (activity was measured to be less than 0.1 μM) | < 65 | xx (activity was measured to be between 0.1 μM and 1.0 μM) | < 65
O=C(OC1CCC1)N1CC2(CCN(C3CC4CCC(C3)N4C(=O)O[C@H]3CCOC3)CC2)c2cc(F)ccc21 (stereo partly shown) [compound 125] | xxx (activity was measured to be less than 0.1 μM) | 65 to 85 | xx (activity was measured to be between 0.1 μM and 1.0 μM) | < 65
CCOC(=O)N1CCC(N2CCC3(CC2)CN(C(C)=O)c2ccc(-c4ccccc4)cc23)CC1 [compound 126] | xxx (activity was measured to be less than 0.1 μM) | < 65 | x (activity was measured to be greater than 1.0 μM) | < 65
C#CCCOC(=O)N1CCC(N2CCC3(CC2)CN(C(=O)N(C)C)c2ccc(F)cc23)CC1 [compound 127] | xxx (activity was measured to be less than 0.1 μM) | 65 to 85 | xx (activity was measured to be between 0.1 μM and 1.0 μM) | < 65
CCOC(=O)N1CCC(N2CCC3(CC2)CN(C(C)=O)c2ccc(-c4ccoc4)cc23)CC1 [compound 128] | xxx (activity was measured to be less than 0.1 μM) | < 65 | xx (activity was measured to be between 0.1 μM and 1.0 μM) | < 65
COC(=O)N1CCC(CN2CCC3(CC2)CN(C(C)=O)c2ccc(F)cc23)CC1 [compound 129] | xxx (activity was measured to be less than 0.1 μM) | 65 to 85 | x (activity was measured to be greater than 1.0 μM) | < 65
CN(C)C(=O)N1CC2(CCN(C3CC4CCC(C3)N4C(=O)O[C@H]3CCOC3)CC2)c2cc(F)ccc21 (stereo partly shown) [compound 130] | xxx (activity was measured to be less than 0.1 μM) | < 65 | xx (activity was measured to be between 0.1 μM and 1.0 μM) | < 65
CCCC1CCC(N2CCC3(CC2)CN(C(C)=O)c2ccc(F)cc23)CC1 (stereo not shown) [compound 131] | xxx (activity was measured to be less than 0.1 μM) | 65 to 85 | xx (activity was measured to be between 0.1 μM and 1.0 μM) | > 85
COC(=O)N1CCCC(N2CCC3(CC2)CN(C(C)=O)c2ccc(F)cc23)CC1 (stereo not shown) [compound 132] | xxx (activity was measured to be less than 0.1 μM) | > 85 | xxx (activity was measured to be less than 0.1 μM) | > 85
O=C(OC1CCCC1)N1C2CCC1CC(N1CCC3(CC1)COc1ccc(F)cc13)C2 (stereo not shown) [compound 133] | xxx (activity was measured to be less than 0.1 μM) | > 85 | xx (activity was measured to be between 0.1 μM and 1.0 μM) | 65 to 85
O=C(C1CCC1)N1C2CCC1CC(N1CCC3(CC1)COc1ccc(F)cc13)C2 (stereo not shown) [compound 134] | xxx (activity was measured to be less than 0.1 μM) | > 85 | xx (activity was measured to be between 0.1 μM and 1.0 μM) | < 65
CC(=O)N1CC2(CCN(CC3CCOC3)CC2)c2cc(F)ccc21 (stereo not shown) [compound 135] | xxx (activity was measured to be less than 0.1 μM) | > 85 | xx (activity was measured to be between 0.1 μM and 1.0 μM) | > 85
CCOC(=O)N1CCC(N2CCC3(CC2)CN(C(=O)C2CC2)c2ccc(F)cc23)CC1 [compound 136] | xxx (activity was measured to be less than 0.1 μM) | > 85 | xxx (activity was measured to be less than 0.1 μM) | > 85
CCOC(=O)N1CCC(N2CCC3(CC2)CN(C(C)=O)c2ccc(CC)cc23)CC1 [compound 137] | xxx (activity was measured to be less than 0.1 μM) | > 85 | x (activity was measured to be greater than 1.0 μM) | > 85
CC(=O)N1CC2(CCN(C3CC4CCC3C4)CC2)c2cc(C)ccc21 (stereo not shown) [compound 138] | xxx (activity was measured to be less than 0.1 μM) | 65 to 85 | x (activity was measured to be greater than 1.0 μM) | 65 to 85
CC(C)OC(=O)N1C2CCC1CC(N1CCC3(CC1)C(=O)Nc1ccccc13)C2 (stereo not shown) [compound 139] | xxx (activity was measured to be less than 0.1 μM) | > 85 | xxx (activity was measured to be less than 0.1 μM) | > 85
CC(=O)N1CC2(CCN(C3CCN(C(=O)OC4CCC4)CC3)CC2)c2cc(F)ccc21 [compound 140] | xxx (activity was measured to be less than 0.1 μM) | > 85 | xxx (activity was measured to be less than 0.1 μM) | > 85
